Key:
[1] = test system: CT26 tumors; test: CT26 tumor model, oral HA15 and anti-PDL1 (Example 2); assay type: in vivo, mice
Procedure: Mice: A total of 60 female BALB/C mice aged 5 weeks and weighted between 15-19 g, were ordered from Envigo. These had one week of acclimatation in C3M animal facility. Animals were housed in IVC cages (5 per cage) with individual mice identified by ear tag. All animals were allowed free access to a standard certified commercial diet and sanitised water during the study. The holding room was maintained under standard conditions: 18-24° C., 55-70% humidity and a 12h light/dark cycle. One week before dosing start, 2 animals died while blood sampling.
58 Mice were randomly assigned into the following treatment groups:
Cells: CT26 cell lines were thawed 2 weeks before mice arrival. These were cultured in RPMI medium supplemented with 10% FBS, 1% Penicillin/streptomycin and 2% sodium pyruvate. Cells were expanded 48 hrs prior to the subcutaneous injection in 5×T175 flasks at concentration of 0.8×10^6 cells. This concentration allows cells to be 70-80% confluency at the day of the injection. Briefly, cells were washed with PBS, detached from the flasks using 3 ml of trypsin, collected with RPMI medium and centrifuged at 300 g for 5 min. These were then resuspended in PBS, counted and 0.5×10^6 cells/mouse ([…] in total for 80 mice) were taken and re-centrifuged to be resuspended in 100 μl/mouse of PBS ready to be subcutaneously injected (8 ml in total for 80 mice). […]

[2] = test system: CHOP; test: Intra-tumoral proteins analysis by western blot: CHOP; assay type: in vivo, mice
[3] = test system: IFNγ; test: Intra-tumoral proteins analysis by western blot and ELISA: IFNγ; assay type: in vivo, mice
Procedure: FIG. 2: HA15 induces in vivo the expression of CHOP and IFNg in mice tumors: tumors were harvested from the mice after HA15 treatment and crushed into lysis buffer to get protein lysates. (A). Tumor lysates were analyzed by western blotting with CHOP, IFNγ and HSP90 antibodies. Densitometric analyses were then performed on the radiogram presented here thanks to the ImageJ (Fiji) program. The signal intensity of the target protein is weighted by that of the HSP90 control. (B) The intra-tumoral […] was dosed in the lysates by a Mouse IFN-g ELISA kit. Mann-Whitney test was performed to compare statistically the protein expressions in the two different groups.
Pieces of tumor were crushed thanks to the “Precellys 24 Tissue Homogenizer” into CK Mix Tubes (#P000918-LYSK0, Bertin Technologies) in presence of protein lysis buffer containing 50 mmol/l Tris-HCl (pH 7.5), 15 mmol/l, NaCl, 1% Triton X-100, and 1× protease and phosphatase inhibitors. Tumor lysates were then centrifuged to remove cells debris.
For western Blot, tumor lysates are prepared in Laemmli buffer. Briefly, tumor lysates (30 μg) were separated by SDS-PAGE, transferred onto a polyvinylidene fluoride membrane (Millipore), and then exposed to the appropriate antibodies. The antibody directed against IFN-gamma was purchased from Abcam (ab133566). Proteins were visualized with the ECL System from Amersham. […]

[4] = test system: CT26 tumors; test: CT26 allografts experiment, HA15 and anti-PD1 (Example 1); assay type: in vivo; conditions: single treatment; CT26 allograft in BALB/c mice; HA15 0.7 mg/mouse/day IP; anti-PD1 4 injections of 0.125 mg/mouse
Procedure: FIG. 1: CT26 cells (5.104) are injected subcutaneously in Balb/C mice. As soon as the tumors reach 50 mm^3, mice are randomly distributed into different experimental groups and treated daily (intraperitoneal) with Vehicle or HA15 (35 mg/kg) and twice a week during two weeks with anti-PD1 (6.25 mg/kg) or PBS. A: Individual tumor growth curves. B: Survival curves. Mice are euthanized when their tumor reach 800 mm^3. A log-rang (Mantel Cox) test was performed to compare statistically the survival in the different experimental groups. Ns=non-significant, *: p≤0.05, **: p≤0.01, ***: p≤0.001.
CT26 Allografts Experiment Female BALB/cOlaHsd mice were obtained at 5 weeks of age from Envigo Laboratory. One week later, these mice were inoculated subcutaneously with CT26 cells (5×10^5 cells/mouse). As soon as its tumor reach 50 mm^3, each mouse was allocated in the different experimental group following a randomization table created with the “Graphpad Quickcalcs” tool (7 mice/group). […] Tumor volumes were determined using the equation Volume=(Length×(Width)^2)/2. […]

[5] = liver, after HA15 treatment (data not shown)

For `CC(=O)Nc1nc(-c2cccc(NS(=O)(=O)c3cccc4c(N(C)C)cccc34)c2)cs1` [HA15], the tumor volume ([1]; after 13 days of daily oral administration, statistically significant compared with vehicle group) was “decreased”, the tumor weight ([1]; after mice termination at day 13, confirms the reduction in tumor growth) was “confirmed” and the CHOP expression ([2]; CT26 tumors harvested after HA15 treatment, western blot) was “induces”. For the same compound, the CHOP expression [2, 5] was “no variation”, the IFNγ expression ([3]; CT26 tumors harvested after HA15 treatment, western blot and ELISA) was “induces” and the IFNγ expression [3, 5] was “no variation”. The complete response [4] was 14%.

From US20260151376A1, “COMBINATION THERAPY FOR THE TREATMENT OF CANCER” (INSTITUT NATIONAL DE LA SANTÉ ET DE LA RECHERCHE MÉDICALE, priority 2022, published 2026)
